For 1 molecule, MIC results are on record in patent US20060058314A1, “Oxazolidinone derivatives and their use as antibacterial agents” (AstraZeneca AB, priority 2002, published 2006).

What all share (format): cell-based
For assay [1], the system named is Staphylococcus aureus MSQS (methicillin sensitive and quinolone sensitive). The assay can be described thus: MIC, agar dilution, staphylococci. The note with it: 10^4 CFU/spot, 37° C., 24 hours. The procedure: (§1) The following results were obtained on a standard in-vitro test system. The activity is described in terms of the minimum inhibitory concentration (MIC) determined by the agar-dilution technique with an inoculum size of 10^4 CFU/spot. Typically, compounds are active in the range 0.01 to 256 μg/ml.
(§2) Staphylococci were tested on agar, using an inoculum of 10^4 CFU/spot and an incubation temperature of 37° C. for 24 hours—standard test conditions for the expression of methicillin resistance.
A general note: In agar dilution the substance is mixed into plates at graded concentrations.

The test system of assay [2] is Staphylococcus aureus MRQR (methicillin resistant and quinolone resistant). The assay can be described thus: MIC, agar dilution, staphylococci. The note with it: 10^4 CFU/spot, 37° C., 24 hours. As to the method:
as §1, §2

The test system of another assay is Enterococcus faecium. The assay is described as follows: MIC, agar with 5% defibrinated horse blood, enterococci. The note with it: agar + 5% horse blood, 10^4 CFU/spot, 37° C., 5% CO2, 48 hours. The procedure: as §1
(§3) Streptococci and enterococci were tested on agar supplemented with 5% defibrinated horse blood, an inoculum of 10^4 CFU/spot and an incubation temperature of 37° C. in an atmosphere of 5% carbon dioxide for 48 hours—blood is required for the growth of some of the test organisms. Fastidious Gram negative organisms were tested in Mueller-Hinton broth, supplemented with hemin and NAD, grown aerobically for 24 hours at 37° C., and with an innoculum of 5×10^4 CFU/well.

Another assay relates to Haemophilus influenzae. The assay can be described thus: MIC, fastidious Gram negative organisms in Mueller-Hinton broth. The note with it: Mueller-Hinton broth + hemin and NAD, 24 hours, 37° C., 5×10^4 CFU/well. The procedure: as §1, §3
The test system of the next assay is Moraxella catarrhalis. The assay is described as above. The settings on record: Mueller-Hinton broth + hemin and NAD, 24 hours, 37° C., 5×10^4 CFU/well. The procedure:
as §1, §3

Another assay has as its system Streptococcus pneumoniae. The assay is described as follows: MIC, agar with 5% defibrinated horse blood, streptococci. The settings on record: agar + 5% horse blood, 10^4 CFU/spot, 37° C., 5% CO2, 48 hours. The procedure: as §1, §3
Assay [3] relates to Linezolid Resistant Streptococcus pneumoniae. Described as above. The settings on record: agar + 5% horse blood, 10^4 CFU/spot, 37° C., 5% CO2, 48 hours. The procedure:
as §1, §3

Take `O=C1O[C@@H](Cn2ccnn2)CN1c1ccc(-c2cnc(C3=NOC(CO)C3)nc2)c(F)c1` (mixture of isomers) [Example 1, 3-(3-Fluoro-4-{2-(5RS)-[5-(hydroxymethyl)-4,5-dihydroisoxazol-3-yl]pyrimidin-5-yl}phenyl)-5-(5R)-(1H-1,2,3-triazol-1-ylmethyl)-1,3-oxazolidin-2-one]: the MIC in assay [1] came out at 2 µg/mL; in assay [2], 2 µg/mL; in the assay with Enterococcus faecium it was 2 µg/mL; in the assay on Haemophilus influenzae, 8 µg/mL; with Moraxella catarrhalis, 2 µg/mL; in the assay on Streptococcus pneumoniae, 0.25 µg/mL. The MIC in assay [3] was found to be 4 µg/mL.
